{
  "source": "patent US20230117328A1",
  "about": "“METHODS TO TREAT CANCER USING (R)-N-(3-FLUORO-4-((3-((1-HYDROXYPROPAN-2-YL)AMINO)-1H-PYRAZOLO[3,4-B]PYRIDIN-4-YL)OXY)PHENYL)-3-(4-FLUOROPHENYL)-1-ISOPROPYL-2,4-DIOXO-1,2,3,4-TETRAHYDROPYRIMIDINE-5-CARBOXAMIDE” (Array BioPharma Inc., priority 2020, published 2023)",
  "system": "female Sprague Dawley rats",
  "conditions": "for ocular histopathology findings, Day 28: 10 rats",
  "key": {"[1]": {"conditions": "100 mg/kg PO QD Days 1-14 (Group 4)"}, "[2]": {"conditions": "200 mg/kg PO QD Days 1-14 (Group 5)"}, "[3]": {"conditions": "200 mg/kg PO QD Days 1-14 (Group 5), 9 rats"}},
  "note": "Like-named read-outs stand apart in the source and are kept apart here.",
  "data": [
    {"smiles": "CC(C)n1cc(C(=O)Nc2ccc(Oc3ccnc4[nH]nc(N[C@H](C)CO)c34)c(F)c2)c(=O)n(-c2ccc(F)cc2)c1=O.Cl", "note": "[Compound 1 HCl, (R)—N-(3-fluoro-4-((3-((1-hydroxypropan-2-yl)amino)-1H-pyrazolo[3,4-b]pyridin-4-yl)oxy)phenyl)-3-(4-fluorophenyl)-1-isopropyl-2,4-dioxo-1,2,3,4-tetrahydropyrimidine-5-carboxamide hydrochloride]", "values": [
      {"measurement": "ocular histopathology findings, Day 56", "setting": "100 mg/kg PO QD Days 1-7 (Group 2), recovery necropsy, 5 rats", "result": "unilateral minimal diffuse atrophy of the ONL which was considered an equivocal change"},
      {"measurement": "ocular histopathology findings, Day 28", "setting": "100 mg/kg PO QD Days 1-7 (Group 2; Test Article 1, Schedule 1)", "result": "No test article-related observations"},
      {"measurement": "incidence of retinal changes (overall)", "setting": "[1]", "result": "low incidence"},
      {"measurement": "reversibility of ocular (retinal) changes", "setting": "[1]", "result": "did not reverse"},
      {"measurement": "animals with ocular (retinal) changes, Day 28", "setting": "100 mg/kg PO QD Days 1-14 (Group 4; Test Article 1, Schedule 2), 9 rats", "result": "one animal (4F-7) had moderate atrophy of the outer nuclear layer (ONL) of the retina"},
      {"measurement": "ocular histopathology findings, Day 28", "setting": "200 mg/kg PO QD Days 1-7 (Group 3; Test Article 2, Schedule 1)", "result": "No test article-related observations"},
      {"measurement": "incidence of retinal changes (overall)", "setting": "[2]", "result": "high incidence"},
      {"measurement": "reversibility of ocular (retinal) changes", "setting": "[2]", "result": "did not reverse"},
      {"measurement": "animals with mild atrophy of ONL (thinning to approximately 6-7 nuclei), Day 28", "setting": "[3]", "result": "one animal"},
      {"measurement": "animals with minimal atrophy of ONL (thinning to approximately 7-8 nuclei), Day 28", "setting": "[3]", "result": "two animals"},
      {"measurement": "animals with minimal degeneration of the rods and cones layer, Day 28", "setting": "[3]", "result": "six animals"},
      {"measurement": "animals with moderate atrophy of ONL (thinning to approximately 4-5 nuclei), Day 28", "setting": "[3]", "result": "five animals"},
      {"measurement": "animals with moderate degeneration of rod and cone processes, Day 28", "setting": "[3]", "result": "two animals"},
      {"measurement": "animals with ocular (retinal) changes, Day 28", "setting": "200 mg/kg PO QD Days 1-14 (Group 5; Test Article 2, Schedule 2), 9 rats", "result": "retinal changes were observed in eight animals"},
      {"measurement": "tolerability (body weight, clinical observations, deaths)", "setting": "female rats, 100 or 200 mg/kg PO QD for 7 or 14 days", "result": "well tolerated with no effects on body weight, adverse clinical observations or deaths related to test article"}
    ]}
  ]
}
